Reference: US9096615B2, “Bridged bicyclic amino thiazine dioxide compounds as inhibitors of beta-secretase and methods of use thereof” (AMGEN INC., priority 2013, dated 2015)
Read-outs that look alike come from different tables or passages of the source.

How the values were obtained:
[1] = test system: Aβ40 in conditioned medium of cells stably expressing Amyloid Precursor Protein (APP); experiment: In vitro BACE cell-based assay (HEK cell assay, Aβ40 sandwich ELISA); details: Homo sapiens, HEK293
Method: In Vitro BACE Cell-Based Assay
The cell-based assay measures inhibition or reduction of Aβ40 in conditioned medium of test compound treated cells expressing amyloid precursor protein.
Cells stably expressing Amyloid Precursor Protein (APP) were plated at a density of 40K cells/well in 96 well plates (Costar). The cells were cultivated for 24 hours at 37° C. and 5% CO2 in DMEM supplemented with 10% FBS. The test compounds were then added to cells in 10-point dose response concentrations with the starting concentration being either 100 μM or 10 μM. The compounds were diluted from stock solutions in DMSO and the final DMSO concentration of the test compounds on cells was 0.1%. After 24 h of incubation with the test compounds the supernatant conditioned media was collected and the Aβ 40 levels were determined using a sandwich ELISA. The IC50 of the compound was calculated from the percent of control or percent inhibition of Aβ 40 as a function of the concentration of the test compound.
The sandwich ELISA to detect Aβ 40 was performed in 96 well microtiter plates, which were pre-treated with goat anti-rabbit IgG (Pierce). The capture and detecting antibody pair that were used to detect Aβ 40 from cell supernatants were affinity purified pAb40 (Biosource) and biotinylated 6E10 (Signet Labs Inc.), respectively. The optimal concentration for the pAb40 antibody was 3 μg/ml in Superblock/TBS (Pierce) that was supplemented with 0.05% Tween 20 (Sigma). Optimal concentration for the detection antibody 6E10-biotinylated was 0.5 μg/ml in Superblock/TBS (Pierce) that had been supplemented with 2% normal goat serum and 2% normal mouse serum.
Cellular supernatants were incubated with the capture antibody for 3 h at 4° C., followed by 3 wash steps in TBS-tween (0.05%). The detecting antibody incubation was for 2 h at 4° C., again followed by the wash steps as described previously. The final readout of the ELISA is Time-Resolved Fluorescence (counts per minute) using Delfia reagents Streptavidin-Europium and Enhancement solutions (Perkin Elmer) and the Victor 2 multilabel counter (Perkin Elmer).

BACE1 = BACE1 (Homo sapiens, UniProt P56817); experiment: In vitro enzymatic BACE FRET assay; type: biochemical
Sequence of BACE1 (P56817 46-501, species assumed): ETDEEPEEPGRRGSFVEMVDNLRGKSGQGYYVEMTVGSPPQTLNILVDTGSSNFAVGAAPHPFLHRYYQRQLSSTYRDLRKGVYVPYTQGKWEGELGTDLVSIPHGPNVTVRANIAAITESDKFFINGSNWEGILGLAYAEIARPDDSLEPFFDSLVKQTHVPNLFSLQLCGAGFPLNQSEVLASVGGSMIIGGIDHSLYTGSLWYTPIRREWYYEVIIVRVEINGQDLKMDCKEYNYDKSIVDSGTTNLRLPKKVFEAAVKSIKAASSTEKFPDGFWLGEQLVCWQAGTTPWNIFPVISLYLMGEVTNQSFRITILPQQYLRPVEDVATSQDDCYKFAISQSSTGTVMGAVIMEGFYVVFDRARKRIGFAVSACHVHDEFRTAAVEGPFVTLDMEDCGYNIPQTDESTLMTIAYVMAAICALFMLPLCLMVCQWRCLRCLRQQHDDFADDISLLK
Method: In Vitro Enzymatic BACE FRET (Fluorescence Resonance Energy Transfer) Assay
Enzyme Assay Data in the Example Table I
The assay buffer used in this screen is 0.05 M acetate, pH 4.2, 10% DMSO final, 100 uM genapol (which is a nonionic detergent, below its Critical Micelle Concentration). The Beta Secretase enzyme (0.2 nM) is pre-incubated for one hour with inhibitors, typically in about 1 uL of DMSO according to a serial dilution, are added thereto. This assay is effectively started by the addition of FRET substrate (50 nM) and the combination is incubated for one hour. The FRET assay is terminated with by addition of Tris buffer, which raises the pH to neutrality, and the fluorescence is determined. The FRET substrate is a peptide with commercially available fluorophore and quencher, on opposite sides of the BACE cleavage site. Proteolytic cleavage of the FRET substrate releases quenching of fluorescence (excitation 488 nm and […]).

Cathepsin D (Cat D) = biological target: T1, Cathepsin D (Cat D) (Homo sapiens, UniProt P07339); experiment: In vitro enzymatic Cathepsin D (Cat D) FRET assay; type: biochemical; details: read-out: CatD IC50
T1 construct: made in house; host or cells: CHO cells
T1 sequence (P07339 65-412, species assumed): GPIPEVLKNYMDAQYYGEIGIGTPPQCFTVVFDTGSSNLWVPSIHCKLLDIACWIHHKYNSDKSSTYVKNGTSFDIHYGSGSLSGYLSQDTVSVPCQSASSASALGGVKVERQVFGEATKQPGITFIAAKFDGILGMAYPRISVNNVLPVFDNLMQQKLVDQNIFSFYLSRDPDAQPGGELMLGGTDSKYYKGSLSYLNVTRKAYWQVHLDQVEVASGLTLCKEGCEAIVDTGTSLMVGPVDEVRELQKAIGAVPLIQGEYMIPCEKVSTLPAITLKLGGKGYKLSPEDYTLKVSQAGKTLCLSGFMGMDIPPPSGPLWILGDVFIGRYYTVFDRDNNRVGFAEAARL
Method: In Vitro Enzymatic Cathepsin D (Cat D) FRET (Fluorescence Resonance Energy Transfer) Assay
Recombinant Cat D was expressed in CHO cells. The assay buffer for CathepsinD is 0.05 M citrate pH 3.5, 10% DMSO final, 5 mM CHAPS. The Cat D enzyme (9 nM) is pre-incubated for one hour with inhibitors, typically in about 1 uL of DMSO according to a serial dilution, is added thereto. The assays are effectively started by the addition of different FRET substrates (20 nM for Cat D) and the combination is incubated for one hour. The FRET assay is terminated with by addition of Tris buffer, which raises the pH to neutrality, and the fluorescence is determined. The FRET substrate is a peptide with commercially available fluorophore and quencher, on opposite sides of the BACE cleavage site. The Cat D substrate peptide sequence is based on sequence #1 of Table 1 from Gulnik et al. FEBS Letters v413 p 379-384 1997. Proteolytic cleavage of the FRET substrate releases quenching of fluorescence (Cat D excitation 500 nm and emission 580 nm). […]
Where available, the in-vitro Cat D FRET assay data for each of the Examples, conducted by the first procedure, is provided in Tables 1 and 3. For example, the compound of example 28 has a Cat D IC50 value of >400 uM.

[2] = Aβ40, 24 h incubation, read-out: HEK cell assay IC50
[3] = read-out: BACE1 FRET assay IC50
[4] = average IC50, read-out: BACE1 cell assay IC50
[5] = average IC50, read-out: BACE1 Enzyme assay IC50

Structure (SMILES) | IC50 [1, 2] | IC50 (BACE1; [3]) | IC50 (Cathepsin D (Cat D)) | IC50 [1, 4] | IC50 (BACE1; [5]) | IC50 (Cathepsin D (Cat D); average IC50, first procedure)
Cc1cc(Cl)cnc1C(=O)Nc1ccc(F)c([C@@]2(C)N=C(N)[C@H]3CC[C@@H]2S3(=O)=O)c1 [Example 33, N-(3-((1S,2R,5R)-4-amino-2-methyl-8,8-dioxido-8-thia-3-azabicyclo[3.2.1]oct-3-en-2-yl)-4-fluorophenyl)-5-chloro-3-methyl-2-pyridinecarboxamide] | > 15.6 µM | 8.46 µM | 1540 µM | – | – | –
Cc1cc(Cl)cnc1C(=O)Nc1ccc(F)c([C@]2(C)N=C(N)[C@]3(C)CC[C@H]2S3(=O)=O)c1 [Example 34, N-(3-((1R,2S,5S)-4-amino-2,5-dimethyl-8,8-dioxido-8-thia-3-azabicyclo[3.2.1]oct-3-en-2-yl)-4-fluorophenyl)-5-chloro-3-methyl-2-pyridinecarboxamide] | 2.03 µM | 4.54 µM | 4310 µM | – | – | –
COc1cnc2c(Nc3ccc(F)c([C@@]4(C)N=C(N)[C@@]5(C)CC[C@@H]4S5(=O)=O)c3)ncc(F)c2c1 [Example 36, N-(3-((1S,2R,5R)-4-amino-2,5-dimethyl-8,8-dioxido-8-thia-3-azabicyclo[3.2.1]oct-3-en-2-yl)-4-fluorophenyl)-5-fluoro-3-methoxy-1,7-naphthyridin-8-amine] | 0.006 µM | 0.002 µM | 5490 µM | – | – | –
COc1cnc(C(=O)Nc2ccc(F)c([C@@]3(C)N=C(N)[C@@]4(C)CC[C@@H]3S4(=O)=O)c2)cn1 [Example 37, N-(3-((1S,2R,5R)-4-amino-2,5-dimethyl-8,8-dioxido-8-thia-3-azabicyclo[3.2.1]oct-3-en-2-yl)-4-fluorophenyl)-5-methoxy-2-pyrazinecarboxamide] | 0.001 µM | 0.004 µM | 1170 µM | – | – | –
C[C@]1(c2cc(Nc3ncc(F)c4cc(O)cnc34)ccc2F)N=C(N)[C@@]2(C)CC[C@@H]1S2(=O)=O [Example 39, (1R,4R,5S)-2-amino-4-(2-fluoro-5-((5-fluoro-3-hydroxy-1,7-naphthyridin-8-yl)amino)phenyl)-1,4-dimethyl-8-thia-3-azabicyclo[3.2.1]oct-2-ene 8,8-dioxide] | – | – | – | 0.009 µM | 0.001 µM | 191 µM
Cc1cc(C(F)(F)F)cnc1C(=O)Nc1ccc(F)c([C@@]2(C)N=C(N)[C@@]3(C)CC[C@]2(C)S3(=O)=O)c1 [Example 48, N-(3-((1S,2R,5R)-4-amino-1,2,5-trimethyl-8,8-dioxido-8-thia-3-azabicyclo[3.2.1]oct-3-en-2-yl)-4-fluorophenyl)-3-methyl-5-(trifluoromethyl)-2-pyridinecarboxamide] | – | – | – | 0.004 µM | 0.011 µM | 54.1 µM
Cc1cc(C(F)(F)F)cnc1C(=O)Nc1ccc(F)c([C@@]2(C)N=C(N)[C@]3(C)CC[C@@]2(C)S3(=O)=O)c1 [Example 49, N-(3-((1R,2R,5S)-4-amino-1,2,5-trimethyl-8,8-dioxido-8-thia-3-azabicyclo[3.2.1]oct-3-en-2-yl)-4-fluorophenyl)-3-methyl-5-(trifluoromethyl)-2-pyridinecarboxamide] | – | – | – | 0.004 µM | 0.011 µM | 66.6 µM
C[C@]12CC[C@](C)(C(N)=N[C@]1(C)c1cc(Nc3ncc(F)c4cc(Cl)cnc34)ccc1F)S2(=O)=O [Example 50, N-(3-((1S,2R,5R)-4-amino-1,2,5-trimethyl-8,8-dioxido-8-thia-3-azabicyclo[3.2.1]oct-3-en-2-yl)-4-fluorophenyl)-3-chloro-5-fluoro-1,7-naphthyridin-8-amine] | – | – | – | 0.28 µM | 0.004 µM | 12 µM
C[C@]12CC[C@](C)([C@@](C)(c3cc(Nc4ncc(F)c5cc(Cl)cnc45)ccc3F)N=C1N)S2(=O)=O [Example 51, N-(3-((1R,2R,5S)-4-amino-1,2,5-trimethyl-8,8-dioxido-8-thia-3-azabicyclo[3.2.1]oct-3-en-2-yl)-4-fluorophenyl)-3-chloro-5-fluoro-1,7-naphthyridin-8-amine] | – | – | – | 0.381 µM | 0.011 µM | 21.5 µM
C[C@]1(c2cc(NC(=O)c3ccc(C#CC4CC4)cn3)ccc2F)N=C(N)[C@@]2(C)CC[C@@H]1S2(=O)=O [Example 64, N-(3-((1S,2R,5R)-4-amino-2,5-dimethyl-8,8-dioxido-8-thia-3-azabicyclo[3.2.1]oct-3-en-2-yl)-4-fluorophenyl)-5-(cyclopropylethynyl)-2-pyridinecarboxamide] | – | – | – | 0.005 µM | 0.001 µM | 470 µM
C[C@]12CC[C@H]([C@@](C)(c3cc(NC(=O)c4ccc(C#CC5CC5)cn4)ccc3F)N=C1N)S2(=O)=O [Example 65, N-(3-((1R,2R,5S)-4-amino-2,5-dimethyl-8,8-dioxido-8-thia-3-azabicyclo[3.2.1]oct-3-en-2-yl)-4-fluorophenyl)-5-(cyclopropylethynyl)-2-pyridinecarboxamide] | – | – | – | 0.016 µM | 0.007 µM | > 400 µM
COc1cnc(C(=O)Nc2ccc(F)c([C@@]3(C)N=C(N)[C@]4(C)CC[C@H]3S4(=O)=O)c2)cn1 [Example 66, N-(3-((1R,2R,5S)-4-amino-2,5-dimethyl-8,8-dioxido-8-thia-3-azabicyclo[3.2.1]oct-3-en-2-yl)-4-fluorophenyl)-5-methoxy-2-pyrazinecarboxamide] | – | – | – | 0.018 µM | 0.07 µM | > 400 µM
C[C@]12CC[C@H]([C@@](C)(c3cc(Nc4nccc5nc(OCC6CC6)cnc45)ccc3F)N=C1N)S2(=O)=O [Example 67, N-(3-((1R,2R,5S)-4-amino-2,5-dimethyl-8,8-dioxido-8-thia-3-azabicyclo[3.2.1]oct-3-en-2-yl)-4-fluorophenyl)-2-(cyclopropylmethoxy)pyrido[3,4-b]pyrazin-5-amine] | – | – | – | 0.522 µM | 0.156 µM | 99.3 µM
C[C@]1(c2cc(Nc3nccc4nc(OCC5CC5)cnc34)ccc2F)N=C(N)[C@@]2(C)CC[C@@H]1S2(=O)=O [Example 68, N-(3-((1S,2R,5R)-4-amino-2,5-dimethyl-8,8-dioxido-8-thia-3-azabicyclo[3.2.1]oct-3-en-2-yl)-4-fluorophenyl)-2-(cyclopropylmethoxy)pyrido[3,4-b]pyrazin-5-amine] | – | – | – | 0.033 µM | 0.005 µM | > 400 µM
Cc1cc(Cl)cnc1C(=O)Nc1ccc(F)c([C@@]2(CF)N=C(N)[C@]3(C)CC[C@H]2S3(=O)=O)c1 [Example 72, N-(3-((1R,2S,5S)-4-amino-2-(fluoromethyl)-5-methyl-8,8-dioxido-8-thia-3-azabicyclo[3.2.1]oct-3-en-2-yl)-4-fluorophenyl)-5-chloro-3-methyl-2-pyridinecarboxamide] | – | – | – | 0.111 µM | 0.024 µM | > 400 µM
COc1cnc(C(=O)Nc2ccc(F)c([C@@]3(CF)N=C(N)[C@]4(C)CC[C@H]3S4(=O)=O)c2)cn1 [Example 75, N-(3-((1R,2S,5S)-4-amino-2-(fluoromethyl)-5-methyl-8,8-dioxido-8-thia-3-azabicyclo[3.2.1]oct-3-en-2-yl)-4-fluorophenyl)-5-methoxy-2-pyrazinecarboxamide] | – | – | – | 0.095 µM | 0.097 µM | > 400 µM
